Test results taken from US8129396B2, “2-[1H-benzimidazol-2(3H)-ylidene]-2-(pyrimidin-2-yl)acetamides and 2-[benzothiazol-2(3H)-ylidene]-2-(pyrimidin-2-yl)acetamides as kinase inhibitors” (Telik, Inc., priority 2008, dated 2012).

Experiments:
Aurora A kinase = molecular target: T1, Aurora A kinase (Homo sapiens, UniProt O14965); experiment: Aurora A kinase assay (IMAP fluorescence polarization); assay type: biochemical; conditions: 10 μM ATP; rounded to 1 significant figure; read-out: Aur-A IC50
T1 construct: purchased Upstate Biotech
T1 sequence (O14965 1-403): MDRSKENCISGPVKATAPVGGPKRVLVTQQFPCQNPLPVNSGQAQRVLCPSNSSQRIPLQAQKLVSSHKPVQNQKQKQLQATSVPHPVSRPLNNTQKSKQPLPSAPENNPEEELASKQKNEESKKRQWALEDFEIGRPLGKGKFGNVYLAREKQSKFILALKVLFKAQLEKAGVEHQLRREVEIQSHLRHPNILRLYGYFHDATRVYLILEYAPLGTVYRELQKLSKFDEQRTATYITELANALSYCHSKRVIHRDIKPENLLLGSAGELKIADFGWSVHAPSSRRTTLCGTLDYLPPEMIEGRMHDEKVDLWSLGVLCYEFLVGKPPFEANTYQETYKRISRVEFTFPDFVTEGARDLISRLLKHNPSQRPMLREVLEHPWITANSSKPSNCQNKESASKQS
Outline: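 Compounds (eight 3-fold dilutions, 2.5% DMSO final) were preincubated 5 min at room temperature with Aurora A kinase in buffer with 1 mM DTT. Reaction with 100 nM fluorescein-PKAtide and 10 μM ATP ran 45 min at room temperature, then was stopped with IMAP binding reagent; fluorescence polarization was read after 30 min.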

Aurora B kinase = molecular target: T2, Aurora B kinase (Homo sapiens, UniProt Q96GD4); experiment: Aurora B kinase assay (IMAP fluorescence polarization); assay type: biochemical; conditions: 10 μM ATP; rounded to 1 significant figure; read-out: Aur-B IC50
T2 construct: purchased BPS Bioscience
Outline: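 Reaction started with 100 nM fluorescein-labelled PKAtide and 10 μM ATP, run 45 min at room temperature, then stopped with IMAP binding reagent (1:400). After 30 min shaking at room temperature, fluorescence polarization read; run in duplicate with solvent control.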

VEGFR2 kinase = molecular target: T3, VEGFR2 kinase (Homo sapiens, UniProt P35968); experiment: VEGFR2 kinase assay; assay type: biochemical; conditions: 6 μM ATP, 1 mM MnCl2; rounded to 1 significant figure
T3 construct: purchased Cell Signaling Technology
Outline: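 VEGFR2 phosphorylates CSKtide with 6 μM ATP and 1 mM MnCl2 for 1 hr, otherwise following the Aurora A kinase protocol. Detection by IMAP fluorescence polarization, binding reagent diluted 1:1200 in 1:1 binding buffer A/B. Run in duplicate with solvent control.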

p-H3 in HCT116 cells = experiment: Histone phosphorylation (p-H3) assay; assay type: cell-based; conditions: Homo sapiens, HCT-116; HCT116 cells, 4 hr incubation; read-out: p-H3 IC50
Outline: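 HCT116 cells (2.5×10^4/well, attached overnight) treated 4 h with 8-point 3-fold compound dilutions at 0.5% DMSO. Lysates dot-blotted onto nitrocellulose and probed for p-H3 with β-actin on the same membrane, fluorescent secondary antibodies, Odyssey scan; duplicate wells.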

[1] = tested on: HCT116 (human colon carcinoma) cells; experiment: HCT116 cytotoxicity assay (CellTiter-Glo); assay type: cell-based; conditions: HCT-116, 72 h, cytotoxicity, three days culture, read-out: HCT116 IC50
[2] = tested on: HL60 (human promyelocytic leukemia) cells; experiment: HL60 cytotoxicity assay (CellTiter-Glo); assay type: cell-based; conditions: HL-60, 72 h, cytotoxicity, three days culture, read-out: HL60 IC50
Description: The cell lines HL60 (human promyelocytic leukemia) and HCT116 (human colon carcinoma) were obtained from the American Type Culture Collection, Manassas, Va., U.S.A., and HUVEC-2 (human umbilical vein endothelial cells) from BD Biosciences, Bedford, Mass., U.S.A. Aurora A kinase was obtained from Upstate Biotech, Billerica, Mass., U.S.A.; Aurora B kinase from BPS Bioscience, San Diego, Calif., U.S.A.; and VEGFR2 kinase from Cell Signaling Technology, Danvers, Mass., U.S.A. The IMAP FP Screening Express kit was obtained from Molecular Devices, Sunnyvale, Calif., U.S.A.; the CellTiter-Glo assay kit from Promega Corporation, Madison, Wis., U.S.A.; and the Cellular DNA Cytometric Analysis Reagent Kit and BrdU labeling and detection kit from Roche Diagnostics Corporation, Indianapolis, Ind., U.S.A. All products were used in accordance with manufacturer's directions. Kinase inhibition assays and the histone phosphorylation (p-H3) assay were conducted in duplicate, and the cytotoxicity and HUVEC proliferation assays were conducted in triplicate, in each case with solvent control.
Log-phase cells were trypsinized, collected by centrifugation, and resuspended in a small volume of fresh medium, and the density of viable cells was determined following Trypan Blue staining. Cells were diluted in fresh media (1×10^4 cells/mL for HL60 and 4×10^4 cells/mL for HCT116 cells), the test compounds (concentrations between 0.1 μM and 200 μM, dissolved in DMSO, 50 μL) added immediately after dilution to achieve a final DMSO concentration of 0.5%, then the suspensions added at 150 μL/well to 96-well plates, and incubated overnight to allow attachment in the case of adherent cells. The cells were cultured for three days (about three doubling times). The cells were then collected by centrifugation, and 100 μL of the culture supernatant was replaced by the CellTiter-Glo reagent. After incubation for 15 minutes at room temperature, the plate was read with a luminometer.

[3] = tested on: HUVEC-2 (human umbilical vein endothelial cells); experiment: HUVEC VEGF-dependent proliferation assay (BrdU); assay type: cell-based; conditions: VEGF (25 ng/mL)-dependent proliferation, read-out: HUVEC IC50
Outline: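 HUVEC-2 cells on gelatin got serially diluted compound (0.5% DMSO final), and VEGF (25 ng/mL) was added 2 hr later. BrdU (10 μM) went in after one day, with labelling for another day. VEGF-dependent proliferation was read by BrdU detection, in triplicate.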

T3 sequence (P35968 20-1356): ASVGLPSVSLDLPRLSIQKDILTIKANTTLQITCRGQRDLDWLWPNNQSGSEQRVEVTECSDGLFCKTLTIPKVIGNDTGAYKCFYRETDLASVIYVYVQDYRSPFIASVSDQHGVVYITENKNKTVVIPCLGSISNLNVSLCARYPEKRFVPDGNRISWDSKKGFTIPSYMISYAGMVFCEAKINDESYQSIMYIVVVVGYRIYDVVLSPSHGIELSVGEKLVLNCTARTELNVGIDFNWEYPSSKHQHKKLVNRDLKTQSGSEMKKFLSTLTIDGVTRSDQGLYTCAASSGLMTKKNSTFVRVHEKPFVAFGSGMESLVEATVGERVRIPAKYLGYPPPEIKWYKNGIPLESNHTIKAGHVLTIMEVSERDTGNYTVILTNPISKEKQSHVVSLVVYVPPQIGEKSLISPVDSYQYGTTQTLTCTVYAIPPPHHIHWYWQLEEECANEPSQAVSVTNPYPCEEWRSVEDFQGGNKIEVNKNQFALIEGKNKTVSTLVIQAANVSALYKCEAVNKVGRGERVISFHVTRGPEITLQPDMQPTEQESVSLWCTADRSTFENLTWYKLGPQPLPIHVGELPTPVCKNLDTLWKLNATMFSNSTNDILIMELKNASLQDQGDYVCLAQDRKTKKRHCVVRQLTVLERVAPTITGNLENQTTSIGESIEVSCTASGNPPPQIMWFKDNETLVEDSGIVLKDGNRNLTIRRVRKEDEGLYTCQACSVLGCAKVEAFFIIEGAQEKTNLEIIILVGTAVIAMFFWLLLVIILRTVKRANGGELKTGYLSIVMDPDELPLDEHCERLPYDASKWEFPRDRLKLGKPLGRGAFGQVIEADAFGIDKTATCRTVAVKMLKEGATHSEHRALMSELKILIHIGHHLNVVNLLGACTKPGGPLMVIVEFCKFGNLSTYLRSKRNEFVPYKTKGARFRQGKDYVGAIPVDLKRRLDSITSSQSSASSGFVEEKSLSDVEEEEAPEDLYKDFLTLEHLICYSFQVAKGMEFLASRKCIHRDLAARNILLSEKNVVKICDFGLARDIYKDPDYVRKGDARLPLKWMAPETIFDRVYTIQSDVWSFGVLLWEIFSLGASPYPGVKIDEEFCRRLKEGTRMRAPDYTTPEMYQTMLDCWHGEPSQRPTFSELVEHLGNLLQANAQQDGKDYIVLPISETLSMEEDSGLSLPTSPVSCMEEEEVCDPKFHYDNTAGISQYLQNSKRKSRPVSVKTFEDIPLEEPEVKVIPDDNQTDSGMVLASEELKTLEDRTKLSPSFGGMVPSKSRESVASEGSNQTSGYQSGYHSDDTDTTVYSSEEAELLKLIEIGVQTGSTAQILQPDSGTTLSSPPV
T2 sequence (Q96GD4 whole entry): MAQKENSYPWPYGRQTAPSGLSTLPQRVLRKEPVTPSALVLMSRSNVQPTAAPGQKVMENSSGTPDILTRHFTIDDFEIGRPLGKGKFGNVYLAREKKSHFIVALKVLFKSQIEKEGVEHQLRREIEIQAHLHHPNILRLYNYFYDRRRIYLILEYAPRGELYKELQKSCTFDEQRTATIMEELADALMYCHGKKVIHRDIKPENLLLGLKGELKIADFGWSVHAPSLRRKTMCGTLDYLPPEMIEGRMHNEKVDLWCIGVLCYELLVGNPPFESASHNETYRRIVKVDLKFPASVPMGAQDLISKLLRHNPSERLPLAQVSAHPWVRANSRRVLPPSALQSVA

| Compound | IC50 (Aurora A kinase) [nM] | IC50 (Aurora B kinase) [nM] | IC50 (VEGFR2 kinase) [nM] | IC50 (p-H3 in HCT116 cells) [nM] | IC50 [1] [nM] | IC50 [2] [nM] | IC50 [3] [nM] |
| --- | --- | --- | --- | --- | --- | --- | --- |
| NC(=O)/C(=C1\Nc2ccc(C(=O)NCCN3CCOCC3)cc2S1)c1nccc(C(F)(F)F)n1 [Compound 54A] | 6 | 10 | 10 | 400 | 400 | 300 | 30 |
| CN1CCC[C@H]1C(=O)Nc1ccc2c(c1)S/C(=C(/C(N)=O)c1nccc(C(F)(F)F)n1)N2 [Compound 78A] | 60 | 40 | 50 | 600 | 2000 | 1000 | 400 |
| NC(=O)/C(=C1\Nc2ccc(NC(=O)Cn3ccnc3)cc2N1)c1nccc(C(F)(F)F)n1 [Compound 86A] | 4 | 8 | 30 | 200 | 400 | 800 | 30 |
| CN1CCC(C(=O)Nc2ccc3c(c2)N/C(=C(/C(N)=O)c2nccc(C(F)(F)F)n2)N3)CC1 [Compound 140A] | 6 | 9 | 20 | 400 | 400 | 300 | 20 |
| NC(=O)/C(=C1\Nc2ccc(NC(=O)[C@H]3CCCN3)cc2N1)c1nccc(C(F)(F)F)n1 [Compound 79A] | 20 | 20 | 10 | 400 | 100 | 300 | 40 |
| NC(=O)C(=C1Nc2cc(F)c(F)cc2N1)c1nccc(C(F)(F)F)n1 [Compound 38A] | 40 | 10 | 200 | 300 | 800 | 1000 | 100 |
| NC(=O)/C(=C1\Nc2ccc(Cn3ccnc3)cc2S1)c1nccc(C(F)(F)F)n1 [Compound 89A] | 5 | 5 | 6 | 100 | 500 | 700 | 80 |
| NC(=O)/C(=C1\Nc2ccc(C(=O)N3CCNCC3)cc2S1)c1nccc(C(F)(F)F)n1 [Compound 61A] | 20 | 10 | 4 | 30 | 100 | 200 | 20 |
| NC(=O)/C(=C1\Nc2ccc(C(=O)NCCn3ccnc3)cc2S1)c1nccc(C(F)(F)F)n1 [Compound 47A] | 4 | 6 | 20 | 200 | 300 | 300 | 4 |
| Cc1cc2c(cc1C)NC(=C(C(N)=O)c1ncc(C(=O)NCCN3CCOCC3)c(C(F)(F)F)n1)N2 [Compound 136A] | 20 |  | 30 | 200 | 800 | 200 | 200 |
| NC(=O)/C(=C1\Nc2ccc(CN3CCNCC3)cc2S1)c1nccc(C(F)(F)F)n1 [Compound 94A] | 7 | 7 | 10 | 80 | 200 | 100 | 50 |
| NC(=O)/C(=C1\Nc2ccc(Oc3cccnc3)cc2S1)c1nccc(C(F)(F)F)n1 [Compound 118A] | 40 | 10 | 100 | 4000 | 2000 | 300 | 200 |
| NC(=O)/C(=C1\Nc2ccccc2S1)c1nccc(-c2ccccc2)n1 [Compound 20A] | 90 | 20 | 200 | > 5000 | 8000 | 600 |  |
| CN(C)CC(=O)Nc1ccc2c(c1)S/C(=C(/C(N)=O)c1nccc(C(F)(F)F)n1)N2 [Compound 74A] | 20 | 10 | 20 | 200 | 300 | 40 | 80 |
| NC(=O)/C(=C1\Nc2ccc(CCc3cccnc3)cc2S1)c1nccc(C(F)(F)F)n1 [Compound 99A] | 20 | 7 | 100 | 1000 | 3000 | 2000 |  |
| NC(=O)/C(=C1\Nc2ccc(NC(=O)C3CC3)cc2N1)c1nccc(C(F)(F)F)n1 [Compound 33A] | 2 | 10 | 9 | 500 | 300 | 300 |  |
| NC(=O)/C(=C1\Nc2ccc(NC(=O)C3(N)CC3)cc2N1)c1nccc(C(F)(F)F)n1 [Compound 34A] | 5 | 6 | 10 | 400 | 600 | 200 |  |
| NC(=O)C(=C1Nc2ccc(N)cc2S1)c1nccc(C(F)(F)F)n1 (single isomer, unassigned) [Compound 32A, 2-[6-aminobenzothiazol-2(3H)-ylidene]-2-(4-trifluoromethylpyrimidin-2-yl)acetamide] | 10 | 10 | 40 | 400 | 5000 | 3000 |  |
| Cc1cc(C(F)(F)F)nc(C(C(N)=O)=C2Nc3ccccc3N2)n1 [Compound 138A] | 8 | 8 | 40 | 500 | 1000 | 400 |  |
| CCN(CCO)C(=O)c1ccc2c(c1)S/C(=C(/C(N)=O)c1nccc(C(F)(F)F)n1)N2 [Compound 31A] | 4 | 9 | 3 | 100 | 200 | 1000 |  |
| NC(=O)/C(=C1\Nc2ccc(-c3cccnc3)cc2S1)c1nccc(C(F)(F)F)n1 [Compound 108A] | 10 | 10 | 60 | 3000 | 2000 | 2000 |  |
| COc1cc(C(F)(F)F)nc(/C(C(N)=O)=C2/Nc3ccccc3S2)n1 [Compound 6A] | 20 | 10 | 200 | 2000 | 4000 | 2000 |  |
| NC(=O)/C(=C1\Nc2ccc(C(=O)NCCCn3ccnc3)cc2S1)c1nccc(C(F)(F)F)n1 [Compound 46A] | 6 | 10 | 40 | 200 | 400 | 200 |  |
